# According to patent US20210139959A1, “MODIFIED NUCLEOTIDE TRIPHOSPHATES FOR MOLECULAR ELECTRONIC SENSORS” (priority 2016, published 2021):
# Tested on: polymerase, e.g., E. coli Pol I
# Details: DNA template A20-C3-A30-G (SEQ ID NO: 3), FIG. 9; T signals are increased current; interpretation of the data
# Text: In this example, 7-deaza-dGTP (see FIG. 14B) was used as a modified dGTP. The signals were obtained for the DNA template {GTCA}10-[sequence] (SEQ ID NO: 2), comprising the 7-deaza modified dGTP.
# In this embodiment, the signal data are obtained for the DNA template {GTCA}10-[sequence] (SEQ ID NO: 2), when a modified dGTP is used (7-deaza dGTP of FIG. 14B).
smiles,measurement,value
"Nc1nc2c(ccn2[C@H]2C[C@H](O)[C@@H](COP(=O)(O)OP(=O)(O)OP(=O)(O)O)O2)c(=O)[nH]1 [7-deaza dGTP, 7-deaza-2′-deoxyguanosine-5′-triphosphate]",modified dGTP incorporation signal (current),reduction in current
